Test results from PubChem BioAssay (NCI).
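Growth conditions: 96-well plates. Treatment: test compound, 48 hours, 5 concentrations. Analysis: linear interpolation between bracketing concentrations; unreached endpoints set to highest concentration. TGI denotes the concentration required for complete inhibition of growth.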

Tests used:
Assay in all cases: NCI-60 cell line screen, 48 h
786-0 renal = test system: 786-0 renal
A549 NSCLC = test system: A549 NSCLC
ACHN renal = test system: ACHN renal
CAKI-1 renal = test system: CAKI-1 renal
CCRF-CEM leukemia = test system: CCRF-CEM leukemia
COLO 205 colon = test system: COLO 205 colon
DLD-1 colon = test system: DLD-1 colon
DMS 114 small cell lung = test system: DMS 114 small cell lung
DMS 273 small cell lung = test system: DMS 273 small cell lung
HCT-116 colon = test system: HCT-116 colon
HCT-15 colon = test system: HCT-15 colon
HL-60(TB) leukemia = test system: HL-60(TB) leukemia
HOP-18 NSCLC = test system: HOP-18 NSCLC
HOP-62 NSCLC = test system: HOP-62 NSCLC
HOP-92 NSCLC = test system: HOP-92 NSCLC
HT29 colon = test system: HT29 colon
IGROV1 ovarian = test system: IGROV1 ovarian
K-562 leukemia = test system: K-562 leukemia
KM12 colon = test system: KM12 colon
KM20L2 colon = test system: KM20L2 colon
LOX IMVI melanoma = test system: LOX IMVI melanoma
LXFL 529 NSCLC = test system: LXFL 529 NSCLC
M14 melanoma = test system: M14 melanoma
M19-MEL melanoma = test system: M19-MEL melanoma
MALME-3M melanoma = test system: MALME-3M melanoma
MOLT-4 leukemia = test system: MOLT-4 leukemia
NCI-H226 lung = test system: NCI-H226 lung
NCI-H23 lung = test system: NCI-H23 lung
NCI-H460 lung = test system: NCI-H460 lung
NCI-H522 lung = test system: NCI-H522 lung
OVCAR-3 ovarian = test system: OVCAR-3 ovarian
OVCAR-4 ovarian = test system: OVCAR-4 ovarian
OVCAR-5 ovarian = test system: OVCAR-5 ovarian
OVCAR-8 ovarian = test system: OVCAR-8 ovarian
RPMI-8226 leukemia = test system: RPMI-8226 leukemia
RXF 393 renal = test system: RXF 393 renal
SF-268 CNS = test system: SF-268 CNS
SF-295 CNS = test system: SF-295 CNS
SF-539 CNS = test system: SF-539 CNS
SK-MEL-2 melanoma = test system: SK-MEL-2 melanoma
SK-MEL-28 melanoma = test system: SK-MEL-28 melanoma
SK-MEL-5 melanoma = test system: SK-MEL-5 melanoma
SK-OV-3 ovarian = test system: SK-OV-3 ovarian
SN12C renal = test system: SN12C renal
SNB-19 CNS = test system: SNB-19 CNS
SNB-75 CNS = test system: SNB-75 CNS
SR leukemia = test system: SR leukemia
SW-620 colon = test system: SW-620 colon
TK-10 renal = test system: TK-10 renal
U251 CNS = test system: U251 CNS
UACC-257 melanoma = test system: UACC-257 melanoma
UACC-62 melanoma = test system: UACC-62 melanoma
UO-31 renal = test system: UO-31 renal
XF 498 CNS = test system: XF 498 CNS
A498 renal = test system: A498 renal
EKVX NSCLC = test system: EKVX NSCLC
HCC-2998 colon = test system: HCC-2998 colon
SNB-78 CNS = test system: SNB-78 CNS
BT-549 breast = test system: BT-549 breast
DU-145 prostate = test system: DU-145 prostate
HS 578T breast = test system: HS 578T breast
MCF7 breast = test system: MCF7 breast
MDA-MB-231 breast = test system: MDA-MB-231 breast
MDA-MB-435 = test system: MDA-MB-435
MDA-N = test system: MDA-N
NCI/ADR-RES ovarian = test system: NCI/ADR-RES ovarian
PC-3 prostate = test system: PC-3 prostate
T-47D breast = test system: T-47D breast

Measured: TGI

CN(C)CCSC(=Nc1ccccc1)N1CCCCC1
33.8 µM: HCT-116 colon | NCI-H460 lung
32.6 µM: SN12C renal
28.8 µM: COLO 205 colon
35.3 µM: OVCAR-5 ovarian
38.1 µM: SF-539 CNS
49.5 µM: HL-60(TB) leukemia
30.4 µM: UACC-62 melanoma
29 µM: NCI-H522 lung
97.3 µM: SR leukemia
28 µM: SK-MEL-28 melanoma
31.7 µM: KM20L2 colon
26.5 µM: DMS 114 small cell lung
29.8 µM: IGROV1 ovarian | OVCAR-3 ovarian | SK-MEL-5 melanoma
58.7 µM: MOLT-4 leukemia
59.6 µM: SNB-75 CNS
52.5 µM: UO-31 renal
38.8 µM: SF-268 CNS
35.2 µM: MALME-3M melanoma
87.4 µM: RPMI-8226 leukemia
31.1 µM: DMS 273 small cell lung
39.7 µM: OVCAR-8 ovarian
> 100 µM: A549 NSCLC | CAKI-1 renal | CCRF-CEM leukemia | HOP-62 NSCLC | K-562 leukemia | SF-295 CNS | SK-OV-3 ovarian | SNB-19 CNS | U251 CNS
30 µM: 786-0 renal | HCT-15 colon | LOX IMVI melanoma | XF 498 CNS
29.9 µM: M14 melanoma
33.5 µM: HOP-18 NSCLC
34.7 µM: RXF 393 renal
29.4 µM: LXFL 529 NSCLC
33.1 µM: TK-10 renal
24.5 µM: NCI-H226 lung
31.2 µM: M19-MEL melanoma
31.5 µM: DLD-1 colon
31.6 µM: SW-620 colon
37.3 µM: NCI-H23 lung
31.3 µM: SK-MEL-2 melanoma
29.6 µM: UACC-257 melanoma
31 µM: KM12 colon
30.5 µM: ACHN renal
33 µM: HT29 colon
27.5 µM: HOP-92 NSCLC
40.2 µM: OVCAR-4 ovarian

CC#CC1/C(=C\C(=O)OC)CCCC1O (stereo not drawn)
not listed: COLO 205 colon | HOP-18 NSCLC | HOP-92 NSCLC | IGROV1 ovarian | KM20L2 colon | LOX IMVI melanoma | LXFL 529 NSCLC | RPMI-8226 leukemia | BT-549 breast | DU-145 prostate | HS 578T breast | MCF7 breast | MDA-MB-231 breast | MDA-MB-435 | MDA-N | NCI/ADR-RES ovarian | PC-3 prostate | T-47D breast
> 100 µM: all other assays above

NC(=O)c1ccc2c(c1)S(=O)(=O)c1ccccc1C2=O
not listed: DLD-1 colon | DMS 114 small cell lung | DMS 273 small cell lung | HOP-18 NSCLC | KM20L2 colon | LXFL 529 NSCLC | M19-MEL melanoma | XF 498 CNS | SNB-78 CNS
> 100 µM: all other assays above
